Values joined by “and” are separate entries in the source; they are usually repeats but may differ in a detail not shown here. Identical values can stand only once. Toxic doses and inconclusive results are not listed. Rule as the data show it: active = T/C of 150% or more; inactive = T/C below 125%.
Tested on: L1210 leukemia ip in BDF1 mice, survival T/C
Assay: NCI In Vivo Anticancer Drug Screen. Data for tumor model L1210 Leukemia (intraperitoneal) in B6D2F1 (BDF1) mice
Details: higher = longer survival
Outline: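 Each compound was tested against a transplantable tumor grown in mice. The endpoint was survival, with treated animals benchmarked against vehicle controls as a simple ratio.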

[1] = endpoint: mean survival time, dose: 100.0 mg/kg/injection, schedule: Q04DX002 (ip), vehicle: Klucel (hydroxypropylcellulose) (HPC)
[2] = endpoint: mean survival time, dose: 200.0 mg/kg/injection, schedule: Q04DX002 (ip), vehicle: Klucel (hydroxypropylcellulose) (HPC)
[3] = endpoint: mean survival time, dose: 400.0 mg/kg/injection, schedule: Q04DX002 (ip), vehicle: Klucel (hydroxypropylcellulose) (HPC)
[4] = endpoint: mean survival time, dose: 100.0 mg/kg/injection, schedule: Q04DX003 (ip), vehicle: carboxymethylcellulose (CMC)
[5] = endpoint: mean survival time, dose: 200.0 mg/kg/injection, schedule: Q04DX003 (ip), vehicle: carboxymethylcellulose (CMC)
[6] = endpoint: mean survival time, dose: 100.0 mg/kg/injection, schedule: Q01DX001 (ip), vehicle: saline
[7] = endpoint: mean survival time, dose: 200.0 mg/kg/injection, schedule: Q01DX001 (ip), vehicle: saline
[8] = endpoint: mean survival time, dose: 400.0 mg/kg/injection, schedule: Q01DX001 (ip), vehicle: saline
[9] = endpoint: mean survival time, dose: 50.0 mg/kg/injection, schedule: Q01DX001 (ip), vehicle: carboxymethylcellulose (CMC)
[10] = endpoint: mean survival time, dose: 100.0 mg/kg/injection, schedule: Q01DX001 (ip), vehicle: carboxymethylcellulose (CMC)
[11] = endpoint: mean survival time, dose: 200.0 mg/kg/injection, schedule: Q01DX001 (ip), vehicle: carboxymethylcellulose (CMC)
[12] = endpoint: mean survival time, dose: 400.0 mg/kg/injection, schedule: Q01DX001 (ip), vehicle: carboxymethylcellulose (CMC)
[13] = endpoint: mean survival time, dose: 100.0 mg/kg/injection, schedule: Q04DX003 (ip), vehicle: Klucel (hydroxypropylcellulose) (HPC)
[14] = endpoint: mean survival time, dose: 200.0 mg/kg/injection, schedule: Q04DX003 (ip), vehicle: Klucel (hydroxypropylcellulose) (HPC)
[15] = endpoint: mean survival time, dose: 400.0 mg/kg/injection, schedule: Q04DX003 (ip), vehicle: Klucel (hydroxypropylcellulose) (HPC)
[16] = endpoint: mean survival time, dose: 100.0 mg/kg/injection, schedule: Q04DX003 (ip), vehicle: saline with Tween-80
[17] = endpoint: mean survival time, dose: 200.0 mg/kg/injection, schedule: Q04DX003 (ip), vehicle: saline with Tween-80
[18] = endpoint: mean survival time, dose: 400.0 mg/kg/injection, schedule: Q04DX003 (ip), vehicle: saline with Tween-80
[19] = endpoint: mean survival time, dose: 100.0 mg/kg/injection, schedule: Q01DX009 (ip), vehicle: Klucel (hydroxypropylcellulose) (HPC)
[20] = endpoint: mean survival time, dose: 200.0 mg/kg/injection, schedule: Q01DX009 (ip), vehicle: Klucel (hydroxypropylcellulose) (HPC)
[21] = endpoint: mean survival time, dose: 50.0 mg/kg/injection, schedule: Q01DX009 (ip), vehicle: saline
[22] = endpoint: mean survival time, dose: 50.0 mg/kg/injection, schedule: Q04DX003 (ip), vehicle: saline with Tween-80

Measured: T/C

O=C(c1ccccc1)c1cccc2ccccc12
inactive: endpoint: mean survival time, dose: 50.0 mg/kg/injection, schedule: Q04DX002 (ip), vehicle: Klucel (hydroxypropylcellulose) (HPC) 109 % of control | [1] 105 % of control | [2] 105 % of control | [3] 109 % of control

COC(=O)[C@@]12OC[C@]34[C@H]([C@@H](O)[C@@H]1O)[C@@]1(C)[C@H](O)C(=O)C=C(C)[C@@H]1C[C@H]3OC(=O)C(OC(C)=O)[C@@H]24 (some centres not stated)
inactive: endpoint: mean survival time, dose: 125.0 micrograms/kg/injection, schedule: Q01DX009 (ip), vehicle: saline + alcohol 104 % of control | endpoint: mean survival time, dose: 250.0 micrograms/kg/injection, schedule: Q01DX009 (ip), vehicle: saline + alcohol 105 % of control | endpoint: mean survival time, dose: 500.0 micrograms/kg/injection, schedule: Q01DX009 (ip), vehicle: saline + alcohol 96 % of control | endpoint: mean survival time, dose: 1000.0 micrograms/kg/injection, schedule: Q01DX009 (ip), vehicle: saline + alcohol 102 % of control | endpoint: mean survival time, dose: 2000.0 micrograms/kg/injection, schedule: Q01DX009 (ip), vehicle: saline + alcohol 104 % of control

CC1(C)N=C(N)N=C(N)N1c1ccc(OCCNS(=O)(=O)c2cccc(S(=O)(=O)F)c2)c(Cl)c1
inactive: endpoint: median survival time, dose: 100.0 mg/kg/injection, schedule: Q01DX001 (ip), vehicle: Klucel (hydroxypropylcellulose) (HPC) 105 % of control | endpoint: median survival time, dose: 200.0 mg/kg/injection, schedule: Q01DX001 (ip), vehicle: Klucel (hydroxypropylcellulose) (HPC) 100 % of control | endpoint: median survival time, dose: 400.0 mg/kg/injection, schedule: Q01DX001 (ip), vehicle: Klucel (hydroxypropylcellulose) (HPC) 105 % of control

NC1=N/C(=C/[N+](=O)[O-])c2ccccc21
inactive: endpoint: mean survival time, dose: 6.25 mg/kg/injection, schedule: Q04DX003 (ip), vehicle: saline 93 % of control | endpoint: mean survival time, dose: 12.5 mg/kg/injection, schedule: Q04DX003 (ip), vehicle: saline 96 % of control

CCOP(=O)(Cc1ccc(Cl)cc1)OCC
inactive: endpoint: mean survival time, dose: 100.0 mg/kg/injection, schedule: Q01DX009 (ip), vehicle: carboxymethylcellulose (CMC) 102 % of control and 90 % of control | endpoint: mean survival time, dose: 100.0 mg/kg/injection, schedule: Q04DX002 (ip), vehicle: carboxymethylcellulose (CMC) 98 % of control and 107 % of control | [4] 96 % of control | endpoint: mean survival time, dose: 200.0 mg/kg/injection, schedule: Q01DX009 (ip), vehicle: carboxymethylcellulose (CMC) 104 % of control and 107 % of control | endpoint: mean survival time, dose: 200.0 mg/kg/injection, schedule: Q04DX002 (ip), vehicle: carboxymethylcellulose (CMC) 93 % of control and 101 % of control | [5] 100 % of control | endpoint: mean survival time, dose: 400.0 mg/kg/injection, schedule: Q04DX002 (ip), vehicle: carboxymethylcellulose (CMC) 93 % of control and 95 % of control

CCCCSP(=O)(SCCCC)N1CCCCC1
inactive: endpoint: mean survival time, dose: 25.0 mg/kg/injection, schedule: Q04DX002 (ip), vehicle: saline with Tween-80 108 % of control | endpoint: mean survival time, dose: 50.0 mg/kg/injection, schedule: Q04DX002 (ip), vehicle: saline with Tween-80 89 % of control | endpoint: mean survival time, dose: 100.0 mg/kg/injection, schedule: Q04DX002 (ip), vehicle: saline with Tween-80 101 % of control

CCOc1ccc2ccccc2c1
inactive: [6] 102 % of control | [7] 98 % of control | [8] 102 % of control

CCC1(C(C)=O)CN2CCc3cc(OC)c(OC)cc3C2N2CCc3ccc(OC)c(OC)c3C21 (configuration not stated)
inactive: [4] 95 % of control | [5] 98 % of control | endpoint: mean survival time, dose: 400.0 mg/kg/injection, schedule: Q04DX003 (ip), vehicle: carboxymethylcellulose (CMC) 95 % of control

CC(=O)N1c2ccccc2Sc2ccc(C(=O)CCl)cc21
inactive: [9] 96 % of control | [10] 98 % of control | [11] 96 % of control | [12] 98 % of control

CC(=O)NC1CCC(S(=O)(=O)N2N=NC3CCCCC32)CC1 (configuration not stated)
inactive: endpoint: mean survival time, dose: 100.0 mg/kg/injection, schedule: Q01DX009 (ip), vehicle: saline with Tween-80 98 % of control | endpoint: mean survival time, dose: 200.0 mg/kg/injection, schedule: Q01DX009 (ip), vehicle: saline with Tween-80 93 % of control | endpoint: mean survival time, dose: 400.0 mg/kg/injection, schedule: Q01DX009 (ip), vehicle: saline with Tween-80 92 % of control

O=C(c1ccc(OC(F)F)cc1)N1CCCCC1
inactive: [13] 94 % of control | [14] 93 % of control | [15] 96 % of control

CCN(CC)CCCC(C)Nc1nc(/C=C/c2ccc(Cl)cc2)nc(Cl)c1-c1ccc(Cl)cc1 (configuration not stated)
inactive: [6] 89 % of control | [13] 95 % of control | [7] 88 % of control | [14] 101 % of control | [8] 96 % of control | [15] 104 % of control

CCCCNCC#N
inactive: endpoint: mean survival time, dose: 50.0 mg/kg/injection, schedule: Q01DX001 (ip), vehicle: saline 110 % of control

O=NN1CCCCC1C(=O)O (configuration not stated)
inactive: [6] 98 % of control | [7] 102 % of control

CC1(C)C2CCC(OC(=O)c3ccc([N+](=O)[O-])cc3)C1C2 (configuration not stated)
inactive: [9] 102 % of control | [10] 102 % of control | [11] 93 % of control | [12] 87 % of control

COCc1nc2ccccc2[nH]1
inactive: [16] 106 % of control | [17] 97 % of control | [18] 93 % of control

O=C1OCC/C1=C/OCCCCCCCCCCO/C=C1\CCOC1=O
inactive: [1] 91 % of control | [2] 91 % of control | [3] 94 % of control

O=C(CCO)Nc1cccc(Cl)c1
inactive: endpoint: mean survival time, dose: 100.0 mg/kg/injection, schedule: Q01DX001 (ip), vehicle: Klucel (hydroxypropylcellulose) (HPC) 98 % of control | [19] 93 % of control | endpoint: mean survival time, dose: 200.0 mg/kg/injection, schedule: Q01DX001 (ip), vehicle: Klucel (hydroxypropylcellulose) (HPC) 101 % of control | [20] 88 % of control | endpoint: mean survival time, dose: 400.0 mg/kg/injection, schedule: Q01DX001 (ip), vehicle: Klucel (hydroxypropylcellulose) (HPC) 91 % of control | endpoint: mean survival time, dose: 400.0 mg/kg/injection, schedule: Q01DX009 (ip), vehicle: Klucel (hydroxypropylcellulose) (HPC) 92 % of control

CON(C)CC(Cl)c1ccccc1 (configuration not stated)
inactive: endpoint: mean survival time, dose: 6.25 mg/kg/injection, schedule: Q01DX009 (ip), vehicle: saline 100 % of control | endpoint: mean survival time, dose: 6.25 mg/kg/injection, schedule: Q04DX003 (ip), vehicle: saline with Tween-80 98 % of control | endpoint: mean survival time, dose: 12.5 mg/kg/injection, schedule: Q01DX009 (ip), vehicle: saline 100 % of control | endpoint: mean survival time, dose: 12.5 mg/kg/injection, schedule: Q04DX003 (ip), vehicle: saline with Tween-80 96 % of control | endpoint: mean survival time, dose: 25.0 mg/kg/injection, schedule: Q01DX009 (ip), vehicle: saline 92 % of control | endpoint: mean survival time, dose: 25.0 mg/kg/injection, schedule: Q04DX003 (ip), vehicle: saline with Tween-80 104 % of control | [21] 92 % of control | [22] 96 % of control and 98 % of control

S=c1c2ccccc2sn1-c1ccccc1
inactive: [10] 92 % of control | [11] 94 % of control | [12] 87 % of control

CSc1ccc(NC(=O)Nc2ccc(F)cc2)cc1
inactive: [19] 96 % of control | [20] 97 % of control

CCC1(CC)C(=O)C=CNC1=O
inactive: [22] 95 % of control | [16] 107 % of control | [17] 102 % of control

O=S(=O)(C(Br)CBr)C(Br)CBr (configuration not stated)
inactive: endpoint: mean survival time, dose: 25.0 mg/kg/injection, schedule: Q01DX009 (ip), vehicle: saline with Tween-80 94 % of control | endpoint: mean survival time, dose: 50.0 mg/kg/injection, schedule: Q01DX009 (ip), vehicle: saline with Tween-80 107 % of control

Cc1ccc(S(=O)(=O)/N=S(\CCCl)CCc2ccccc2)cc1 (configuration not stated)
inactive: [13] 97 % of control | [14] 97 % of control | [15] 90 % of control

CCN(CC)CCOc1cccc(Oc2ccccc2)c1
inactive: [21] 96 % of control | endpoint: mean survival time, dose: 100.0 mg/kg/injection, schedule: Q01DX009 (ip), vehicle: saline 117 % of control | endpoint: mean survival time, dose: 100.0 mg/kg/injection, schedule: Q04DX003 (ip), vehicle: saline 98 % of control

CC(=O)OC1COC(SSC2OCC(OC(C)=O)C(OC(C)=O)C2OC(C)=O)C(OC(C)=O)C1OC(C)=O (configuration not stated)
inactive: [6] 89 % of control | [7] 89 % of control | [8] 101 % of control

C[n+]1cccc2c(C(=O)O)cccc21
inactive: [6] 97 % of control | [7] 96 % of control

COC(=O)C1c2ccccc2-c2ccc(N3C(=O)C=CC3=O)cc21 (configuration not stated)
inactive: [16] 107 % of control | [17] 104 % of control | [18] 115 % of control
